According to patent publication US12208181B2, “Medication infusion components and systems” (MEDTRONIC MINIMED, INC., priority 2017, dated 2025):
Entries after “also recorded” stand apart in the source; their conditions may differ.

Legend:
diabetic porcine model [1] = test: Insulin infusion site-loss study in diabetic porcine model (extended wear infusion set); format: in vivo, pig; conditions: for Effect on site-loss compared with control: diabetic pigs, agent given with insulin (Humalog) infusion, control without agent; for No site loss for: Sof-Set
Protocol: The objectives of this study include duplicating the site-loss phenomena observed in previous studies using a diabetic porcine model. Additionally, various infusion set configurations are evaluated for reducing site-loss and extending infusion set wear. Further, site-loss is mitigated using a response-inhibiting agent and/or infusion pump to increase reliability of wear for 3 days and extend infusion set wear beyond 3 days.
The objectives of this study include: duplicating the site-loss phenomena observed in previous studies using the diabetic porcine model; using the established diabetic porcine model to evaluate the effects of various infusion set designs on infusion site-loss; and testing if site-loss can be mitigated by direct pump infusing of immunosuppressant/anti-inflammatory drugs, and/or by modifying infusion set by drug coating.
This study is designed so that each set (inserted under anesthesia) is to be worn for 1 week unless there was set failure/dislodge. Glucose is monitored by a blood glucose meter and Enlite™ sensor. The criteria for determining site loss is that blood glucose is greater than 350 mg/dl and fails to decrease following an insulin dose correction. During biopsy pumps are removed but the cannula is maintained in-situ. Site skin is examined for edema/erythema (swell/redness) (see FIG. 8).

diabetic porcine model [2] = test: Local toxicity observation in diabetic porcine model; conditions: prefilled heparin/insulin, Sof-Set; heparin 100-800 U/mL insulin (U100)
diabetic pig = test: Histopathology of infusion sites (inflammation at catheter tip and body); format: in vivo
Excerpt: FIG. 2A is a series of histologic evaluations at the catheter tip showing the inflammatory response (score), and size of the area with tissue reaction. “*” indicates the catheter location and “F” indicates normal fat. […] FIG. 2B is a series of graphs illustrating the inflammation at the catheter tip for diabetic and non-diabetic pigs. Localized inflammation loosely correlated with site-loss.
FIG. 2C is a series of graphs illustrating the predominate inflammation cells at the catheter tip and catheter body (qualitative). To isolate the main inflammation contributors, a catheter, a catheter infused with insulin (Humalog™), and a catheter infused with placebo were placed on a diabetic pig at the same time.
FIG. 2D is a series of graphs illustrating the predominate inflammation cells at the catheter tip and catheter body of an insulin injection port (i-Port™). To isolate the main inflammation contributors, a catheter, a catheter infused with insulin, and a catheter infused with placebo were placed on a diabetic pig. Compared to continuous infusion, the giant cells are missing in the i-Port™ study. […] As observed by the pathologist, the pigs may have developed a hypersensitivity to the Humalog™ and such a reaction would contribute to the inflammation seen (the degree that hypersensitivity is influencing the inflammation is unclear but it could be one of the main drivers).

diabetic Yucatan pigs = test: Site-loss evaluation during CSII (Example 1); format: in vivo
Excerpt: (§1) The goal of studying insulin infusion site-loss using a diabetic porcine model is to establish the methods and animal model necessary to reproduce the phenomenon of site-loss in Continuous Subcutaneous Insulin Infusion (CSII). Methodologies are established for evaluating infusion sites in healthy and diabetic pigs, including device placement and animal management, glucose monitoring, insulin detection, pharmacokinetics, site harvesting, and pathological evaluation. The host response to implanted functional devices is assessed in healthy and diabetic pigs. Parameters that are believed to impact site-loss are varied until site-loss is observed.
Site-loss was evaluated using a criteria of a prolonged high blood glucose level (greater than 350 mg/dl) as well as being ineffectively controlled by increasing insulin basal/bolus rate. Site-loss observed was pig dependent, sometimes site-dependent. […] The other two pigs (#341425 and #341426) had no site-loss in 7 days if a proper site was located. In general, the pigs with observed site-loss were less responsive to a Humalog™ dose. Histologically, the predominant tissue response was inflammation and, with longer infusion, fibrosis. Inflammation scores trended to be of higher grade in diabetic pigs compared to normal pigs, with a larger inflammation area around the catheter tip. […]

[3] = system: normal and diabetic Yucatan pigs; test: PK/PD study: blood glucose response to Humalog; format: in vivo
Excerpt: as §1

[4] = diabetic pigs, compared to catheter and placebo

C[C@@H]1C[C@H]2[C@@H]3CCC4=CC(=O)C=C[C@]4(C)[C@@]3(F)[C@@H](O)C[C@]2(C)[C@@]1(O)C(=O)COP(=O)(O)O [DXP, Dexamethasone Phosphate]
Effect on site-loss compared with control (diabetic porcine model [1]): performing significantly worse than the control

dextran
Infusion site active (diabetic porcine model [1]; Sof-Set with dextran dosed insulin (FIG. 22)): up to 6 days | Effect on site-loss compared with control (diabetic porcine model [1]): performing significantly better than the control | Efficacy in extending infusion set wear / site-loss mitigation (in words) (diabetic porcine model [1]; diabetic porcine model): efficacy of dextran in extending infusion set wear

heparin
Local toxicity (diabetic porcine model [2]): No local toxicity was observed | Infusion site active (diabetic porcine model [1]; Sof-Set with heparin dosed insulin (FIGS. 17, 18)): up to 13 days | Site-loss (glucose monitoring) (diabetic porcine model [1]; U100 Humalog with heparin sodium, actual 3.55 mg/mL or 685 U/mL, continuous infusion, pigs IM3 and IM4): > 6 days | Effect on site-loss compared with control (diabetic porcine model [1]): performing significantly better than the control | No site loss for (diabetic porcine model [1]; prefilled heparin/insulin, heparin 100-800 U/mL insulin (U100)): greater than 13 days

CO[C@H]1C[C@@H]2CC[C@@H](C)[C@@](O)(O2)C(=O)C(=O)N2CCCC[C@H]2C(=O)O[C@H]([C@H](C)C[C@@H]2CC[C@@H](O)[C@H](OC)C2)CC(=O)[C@H](C)/C=C(\C)[C@@H](O)[C@@H](OC)C(=O)[C@H](C)C[C@H](C)/C=C/C=C/C=C/1C [rapamycin]
Effect on Site-Loss: site-loss after / duration of wear (diabetic porcine model [1]; 1 pig using Sof-Set, rapamycin later found degraded in solution after use): 5 days | Signs of improvement: recovery after (diabetic porcine model [1]; rapamycin dosed with Humalog): around 6 days | No site loss for (diabetic porcine model [1]; rapamycin spiked in insulin, around 0.6 μg/day): more than 6 days

Insulin lispro [Humalog]
Order of evaluated inflammation scores (diabetic pig; catheter, catheter infused with insulin (Humalog), catheter infused with placebo on one diabetic pig): insulin≥placebo≥catheter; also recorded: insulin≥placebo≥cannula | Localized inflammation (diabetic pig; [4]): associated with increased localized inflammation | Localized tissue fibrosis (diabetic pig; [4]): main contributor to localized tissue fibrosis | Site-loss observed at (diabetic Yucatan pigs; pigs #341423 and #341424, blood glucose >350 mg/dl criterion): approximately 3 days | No site-loss in (diabetic Yucatan pigs; pigs #341425 and #341426, if a proper site was located): > 7 days | Blood glucose lowering [3]: effectively lower blood glucose level

C[C@H]1C[C@H]2[C@@H]3CCC4=CC(=O)C=C[C@]4(C)[C@@]3(F)[C@@H](O)C[C@]2(C)[C@@]1(O)C(=O)COP(=O)([O-])[O-].[Na+].[Na+] [BSP, Betamethasone Sodium phosphate]
Effect on site-loss compared with control (diabetic porcine model [1]): performing significantly worse than the control
